In patent US20190353647A1, “NOVEL REAL-TIME MULTIPLEXED, MULTI-COLOR BIOLUMINESCENCE RESONANCE ENERGY TRANSFER ASSAY, APPARATUS, AND USES THEREOF” (Universite de Bordeaux, priority 2016, published 2019):
Values belong to the compound of their own block, whether it stands above or below them.

Columns and labels:
TRPV1 = target: T1, TRPV1 (Homo sapiens, UniProt Q8NER1); assay: Intermolecular BRET assay, TRPV1-Luc/YFP-CaM in HEK293T cells; type: cell-based; conditions: for Effect on CAPS-induced BRET increase: intermolecular test
T1 construct: expressed in transfected cells; host or cells: HEK293T
Text: In order to generate the BRET constructs, super Yellow Fluorescent Protein 2 and Renilla Luciferase II were used to improve the brightness of the assay. They were referred as YFP and Luc for short in the rest of the manuscript. The cDNA of Luc and YFP were first cloned together using a three-piece ligation in the BamHI/XhoI site of pcDNA3.1(+) (Invitrogen, Carlsbad, Calif., USA), yielding two expression vectors pcDNA3.1 YFP-Luc where YFP was cloned in-fusion at the N-terminal of Luc, and pcDNA3.1 Luc-YFP where Luc was cloned in-fusion at the N-terminal of YFP. Both YFP and Luc were amplified by PCR from the pcDNA3-YFP-EPAC-Luc vector. Luc was cloned either at the N-terminal of YFP as a HindIII-EcoRI fragment (primers used: “Luc_HindIII_ATGN-term sense” and “Luc_no Stop_EcoRI_N-term antisense”) or at the COOH-terminal of YFP as an EcoRI-XhoI fragment (primer used: “Luc_EcoRI_ATG_C-term sense” and “Luc_XhoI_Stop_C-term antisense”). In parallel, YFP was cloned either at the N-terminal of Luc as a HindIII-EcoRI fragment (primers used: “YFP_HindIII_ATG_N-term sense” and “YFP_no Stop_EcoRI_N-term antisense”) or at the COOH-terminal of Luc as a EcoRI-XhoI fragment (primer used: “YFP_EcoRI_ATG_C-term sense” and “YFP_XhoI_Stop_C-term antisense”). The sequence joining Luc and YFP sequence encoded […] (SEQ ID NO: 18) as a linker, and contained an AgeI restriction site. The YFP-hTRPV1-Luc expression vector was obtained by subcloning the human TRPV1 cDNA from the pDONR201-hTRPV1 vector (Harvard Medical School PlasmID Repository, clone HsCD00081472) as an EcoRI PCR fragment in the EcoRI site of the vector pcDNA3.1 YFP-Luc (primer used: “hTRPV1_EcoRI_Fus_Sense” and “hTRPV1_EcoRI_Fus_antisense”). The hTRPV1-Luc expression vector was obtained by subcloning the cDNA of hTRPV1 as a HindIII-EcoRI fragment in place of the YFP in the HindIII-EcoRI site of the pcDNA3.1 YFP-Luc vector (primer used: “hTRPV1_HindIII_ATG_Sense” and “hTRPV1_EcoRI_Fus_antisense”). The Luc-hTRPV3 expression vector was obtained by subcloning the cDNA of hTRPV3 (Harvard Medical School PlasmID Repository, clone HsCD00341603) as a AgeI-XhoI fragment in place of the YFP in the AgeI-XhoI sites of the pcDNA3.1 Luc-YFP vector (primer used: “hTRPV3_AgeI_ATG_Sense” and “hTRPV3_Stop_XhoI_antisense”). The hTRPV4-Luc expression vector was obtained by subcloning the cDNA of hTRPV4 as a BamHI-AgeI fragment in place of the YFP in the BamHI-AgeI site of the pcDNA3.1 YFP-Luc vector (primer used: “hTRPV4_BamHI_ATG_Sense” and hTRPV4_AgeI_Fus_antisense”). In each case, the sequence joining the cDNA of interest and either Luc or YFP sequence encoded […] (SEQ ID NO: 18) as a linker.
The cDNA of mAmetrine (Plasmid #54660) and LssmOrange (Plasmid #37130) were obtained from AddGene plasmid repository. The cDNA of aquamarine, mAmetrine and LssmOrange were all subcloned as a HindIII-EcoRI fragment in place of the YFP in the HindIII-EcoRI site of the pcDNA3.1 YFP-Luc vector (primer used: “YFP_HindIII_ATG_N-term sense” and “YFP_no Stop_EcoRI_N-term antisense”) to yield pcDNA3.1 FP-Luc expression vectors (“FP” being any fluorescent protein between aquamarine, mAmetrine and LssmOrange). […] A similar strategy was used to obtain the FP-CaM expression vector using the pcDNA3.1 FP-Luc expression vector instead of the pcDNA3.1 YFP-Luc.
HEK293T cells were maintained in Dulbecco's modified Eagle's medium-high Glucose (DMEM) (D6429, Sigma) supplemented with 10% fetal bovine serum, 100 units mL-1 penicillin and streptomycin. Twenty-four hours before transfection, cells were seeded at a density of 500,000 cells in 6-well dishes. Transient transfections were performed using polyethylenimine (PEI, linear, Mr 25,000; catalogue number 23966 Polysciences, Inc., Warrington, Pa., USA) with a PEI:DNA ratio of 4:1. Usually, 0.1-0.25 μg of the donor constructions and 1.75-1.9 μg of the acceptors constructions were transfected for the BRET measurement.

TRPV4 = TRPV4 (Homo sapiens, UniProt Q9HBA0); assay: Intermolecular BRET assay, TRPV4-Luc/YFP-CaM in HEK293T cells; type: cell-based; design: expressed in transfected cells; host or cells: HEK293T; conditions: for TRPV4-Luc/YFP-CaM basal BRET signal on challenge: HEK293T, dose-response, FIG. 1
Text: In order to generate the BRET constructs, super Yellow Fluorescent Protein 2 and Renilla Luciferase II were used to improve the brightness of the assay. They were referred as YFP and Luc for short in the rest of the manuscript. The cDNA of Luc and YFP were first cloned together using a three-piece ligation in the BamHI/XhoI site of pcDNA3.1(+) (Invitrogen, Carlsbad, Calif., USA), yielding two expression vectors pcDNA3.1 YFP-Luc where YFP was cloned in-fusion at the N-terminal of Luc, and pcDNA3.1 Luc-YFP where Luc was cloned in-fusion at the N-terminal of YFP. Both YFP and Luc were amplified by PCR from the pcDNA3-YFP-EPAC-Luc vector. Luc was cloned either at the N-terminal of YFP as a HindIII-EcoRI fragment (primers used: “Luc_HindIII_ATGN-term sense” and “Luc_no Stop_EcoRI_N-term antisense”) or at the COOH-terminal of YFP as an EcoRI-XhoI fragment (primer used: “Luc_EcoRI_ATG_C-term sense” and “Luc_XhoI_Stop_C-term antisense”). In parallel, YFP was cloned either at the N-terminal of Luc as a HindIII-EcoRI fragment (primers used: “YFP_HindIII_ATG_N-term sense” and “YFP_no Stop_EcoRI_N-term antisense”) or at the COOH-terminal of Luc as a EcoRI-XhoI fragment (primer used: “YFP_EcoRI_ATG_C-term sense” and “YFP_XhoI_Stop_C-term antisense”). The sequence joining Luc and YFP sequence encoded […] (SEQ ID NO: 18) as a linker, and contained an AgeI restriction site. The YFP-hTRPV1-Luc expression vector was obtained by subcloning the human TRPV1 cDNA from the pDONR201-hTRPV1 vector (Harvard Medical School PlasmID Repository, clone HsCD00081472) as an EcoRI PCR fragment in the EcoRI site of the vector pcDNA3.1 YFP-Luc (primer used: “hTRPV1_EcoRI_Fus_Sense” and “hTRPV1_EcoRI_Fus_antisense”). The hTRPV1-Luc expression vector was obtained by subcloning the cDNA of hTRPV1 as a HindIII-EcoRI fragment in place of the YFP in the HindIII-EcoRI site of the pcDNA3.1 YFP-Luc vector (primer used: “hTRPV1_HindIII_ATG_Sense” and “hTRPV1_EcoRI_Fus_antisense”). […]
HEK293T cells were maintained in Dulbecco's modified Eagle's medium-high Glucose (DMEM) (D6429, Sigma) supplemented with 10% fetal bovine serum, 100 units mL-1 penicillin and streptomycin. […] After overnight incubation, transfected cells were then detached, resuspended in DMEM w/o red phenol (Ref 21063-029, ThermoFisher scientific, Waltham, Mass., USA) and replated at a density of 10^5 cells per well in 96-well white plates with clear bottoms (Greiner Bio one, Courtaboeuf, France) pre-treated with D-polylysine (Sigma) for reading with the Tristar2 luminometer (Berthold Technologies, Bad Wildbad, Germany) or onto 12 mm diameter glass coverslips (Knittel Glass, Braunschweig, Germany) treated with poly-L-lysine for the reading with the SpectraPro 2300i spectrometer (Acton Optics, Acton, Mass., USA). […]

[1] = TRPV1-Luc/YFP-CaM titration, presence vs absence of CAPS
[2] = temperature rise from 25 to 42° C., TRPV1-Luc/YFP-CaM

T1 sequence (Q8NER1 whole entry): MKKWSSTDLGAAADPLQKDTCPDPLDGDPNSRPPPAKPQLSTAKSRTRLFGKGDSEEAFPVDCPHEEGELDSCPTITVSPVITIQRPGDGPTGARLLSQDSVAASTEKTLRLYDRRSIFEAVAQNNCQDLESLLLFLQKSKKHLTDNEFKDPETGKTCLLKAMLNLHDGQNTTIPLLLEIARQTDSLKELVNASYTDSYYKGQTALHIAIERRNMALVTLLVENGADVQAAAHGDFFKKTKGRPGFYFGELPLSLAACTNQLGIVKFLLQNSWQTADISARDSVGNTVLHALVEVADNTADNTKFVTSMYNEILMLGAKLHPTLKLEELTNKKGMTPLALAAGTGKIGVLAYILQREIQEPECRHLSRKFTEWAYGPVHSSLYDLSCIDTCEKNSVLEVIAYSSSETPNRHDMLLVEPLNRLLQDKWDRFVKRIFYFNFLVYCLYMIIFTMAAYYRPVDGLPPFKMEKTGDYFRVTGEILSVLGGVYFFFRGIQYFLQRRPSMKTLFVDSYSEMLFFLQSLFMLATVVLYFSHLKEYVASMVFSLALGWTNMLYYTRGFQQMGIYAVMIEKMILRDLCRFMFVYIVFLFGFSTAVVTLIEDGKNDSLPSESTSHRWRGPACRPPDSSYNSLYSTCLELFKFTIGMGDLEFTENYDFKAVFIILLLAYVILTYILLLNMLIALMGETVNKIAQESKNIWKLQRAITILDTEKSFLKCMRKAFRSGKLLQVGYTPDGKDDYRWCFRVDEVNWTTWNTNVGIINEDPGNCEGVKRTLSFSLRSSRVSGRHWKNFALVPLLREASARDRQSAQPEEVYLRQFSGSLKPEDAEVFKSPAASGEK
Chain of TRPV4 (Q9HBA0 whole entry, the tested form may be a part): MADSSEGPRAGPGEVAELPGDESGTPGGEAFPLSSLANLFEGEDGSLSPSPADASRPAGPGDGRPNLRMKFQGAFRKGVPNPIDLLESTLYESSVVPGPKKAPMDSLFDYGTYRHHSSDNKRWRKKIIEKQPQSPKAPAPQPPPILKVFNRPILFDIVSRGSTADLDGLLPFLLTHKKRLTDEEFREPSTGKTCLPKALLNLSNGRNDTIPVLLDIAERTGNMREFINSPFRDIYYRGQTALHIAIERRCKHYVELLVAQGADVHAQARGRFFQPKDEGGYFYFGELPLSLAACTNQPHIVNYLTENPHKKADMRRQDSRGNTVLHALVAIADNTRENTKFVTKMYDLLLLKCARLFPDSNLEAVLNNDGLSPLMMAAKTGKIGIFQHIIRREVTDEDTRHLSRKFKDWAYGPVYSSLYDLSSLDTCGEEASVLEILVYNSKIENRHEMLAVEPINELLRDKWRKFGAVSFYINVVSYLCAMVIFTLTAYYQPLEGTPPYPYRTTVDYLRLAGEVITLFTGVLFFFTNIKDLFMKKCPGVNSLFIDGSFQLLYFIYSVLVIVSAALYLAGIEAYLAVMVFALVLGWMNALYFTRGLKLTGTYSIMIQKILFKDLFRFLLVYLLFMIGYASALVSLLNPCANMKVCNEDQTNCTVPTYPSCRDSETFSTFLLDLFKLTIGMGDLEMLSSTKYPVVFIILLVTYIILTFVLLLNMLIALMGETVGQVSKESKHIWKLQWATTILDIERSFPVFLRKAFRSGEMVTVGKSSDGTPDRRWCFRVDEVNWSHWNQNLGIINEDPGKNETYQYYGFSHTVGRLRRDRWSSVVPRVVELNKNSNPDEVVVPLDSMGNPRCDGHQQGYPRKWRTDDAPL

Structure (SMILES): Oc1cc2c(cc1O)CN(C(=S)NCCc1ccc(Cl)cc1)CCC2 [CPZ, Capsazepine]
- BRET signal on heating from 25 to 50° C. after preincubation (TRPV1; TRPV1-Luc/YFP-CaM, cells preincubated with the compound): no significant increase
- Effect on CAPS-induced BRET increase (TRPV1; TRPV1-Luc/YFP-CaM): inhibited

Structure (SMILES): CCN(CC)CCOC(=O)C(c1ccccc1)C1CCCCC1 (stereo not shown) [Drofenine]
- TRPV4-Luc/YFP-CaM basal BRET signal on challenge (TRPV4): did not produce any increase

Structure (SMILES): CC(C)C[C@H](NC(=O)c1cc2ccccc2s1)C(=O)N1CCN(C(=O)[C@H](CO)NS(=O)(=O)c2ccc(Cl)cc2Cl)CC1 [GSK1016790A]
- EC50 (TRPV4): 1.93 nM
- TRPV4-Luc/YFP-CaM basal BRET signal on challenge (TRPV4): dose-dependent increase

More lines, now with the values ahead:

- Effect on CAPS-induced BRET increase (TRPV1; TRPV1-Luc/YFP-CaM): inhibited
Structure (SMILES): CC(=O)Nc1nc2c(Oc3cc(-c4ccc(C(F)(F)F)cc4)ncn3)cccc2s1 [AMG517]

- Sensitivity of TRPV1-Luc/YFP-CaM interaction (TRPV1; HEK293T, dose-response, FIG. 1): sensitive
- Change of basal BRET signal (TRPV1; TRPV1-Luc/YFP-CaM): increased with a first order kinetic
- BRET50 (concentration of YFP-CaM needed to reach 50% of maximal BRET signal) (TRPV1; [1]): diminished
- Maximal BRET signal in BRET titration curves (TRPV1; [1]): dramatically increased
- Change in CAPS potency on temperature rise (TRPV1; [2]): leftward shift
- Change in maximal efficacy on temperature rise (TRPV1; [2]): increase
- TRPV4-Luc/YFP-CaM basal BRET signal on challenge (TRPV4): did not produce any increase
Structure (SMILES): COc1cc(CNC(=O)CCCC/C=C/C(C)C)ccc1O [CAPS, Capsaicin]
